For two compounds, EC50 and GI50 results are on record in patent US20070099877A1, “N-aryl-thienopyrimidin-4-amines and analogs as activators of caspases and inducers of apoptosis and the use thereof” (Cytovia, Inc., priority 2005, published 2007).

Where a name gives a salt, the structure may show the parent alone. Read-outs that look alike come from different tables or passages of the source.

Common to all, as to type: cell-based
Assay [1] relates to human B cell lymphoblastoid cell line Ramos. Briefly: Caspase cascade activation in Ramos cells. The note with it: 48 h, read-out: Caspase Activation Potency EC50 Ramos.
The subject of assay [2] is human hepatocellular carcinoma cell line SNU398. Briefly: Caspase cascade activation in SNU398 cells. Particulars: read-out: Caspase activation Potency EC50 SNU398 (48 h). The gist of the method: (§1)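 Cells were exposed to compound at 0.016 to 10 μM final for 24 h or 48 h at 37 °C. They were then lysed with 14 μM N-(Ac-DEVD)-N′-ethoxycarbonyl-R110 in lysolecithin/DTT/PIPES buffer pH 7.2 for 3 h at room temperature (ex 485/em 530 nm). EC50 came from a sigmoidal fit of net RFU relative to untreated control.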

The test system of assay [3] is human breast cancer cell line T-47D. Briefly: Caspase cascade activation (DEVD-R110 fluorogenic substrate) in T-47D cells. The essentials: as §1
Assay [4] deals with human colon carcinoma cell line HCT116. Nature of the assay: Caspase cascade activation in HCT116 cells. The note with it: read-out: Caspase activation Potency EC50 HCT116 (48 h). The gist of the method:
as §1

The subject of assay [5] is breast cancer cell line SKBR3. Nature of the assay: Caspase cascade activation in SKBR3 cells. The note with it: Homo sapiens, SK-BR-3, 48 h, read-out: Caspase Activation Potency EC50 SKBR3.
For assay [6], the system named is human lymphoma cell line Raji. Nature of the assay: Caspase cascade activation in Raji cells. The note with it: 48 h, read-out: Caspase Activation Potency EC50 Raji.
Assay [7] has as its system human Burkitt's lymphoma cell line Namalwa. Nature of the assay: Caspase cascade activation in Namalwa cells. The note with it: Burkitts lymphoma cell, 48 h, read-out: Caspase Activation Potency EC50 Namalwa.
In assay [8] the test system is human colon cancer cell line HT29. Nature of the assay: Inhibition of cell proliferation (GI50) in HT29 cells. The note with it: HT-29, Table III, 48 h. As for the experimental part:
(§2) Human breast cancer cell lines T-47D, MX-1 and MDAMB435, human colon cancer cell line HT29, and human lung cancer cell line H1299 were grown and harvested as in Example 75. An aliquot of […] of cells (4.4×10^4 cells/mL) was added to a well of a 96-well microtiter plate containing 5 μL of a 10% DMSO in RPMI-1640 media solution containing 10 nM to 100 μM of N-(2,5-dimethoxyphenyl)-2-methylthieno[3,2-d]pyrimidin-4-amine (1 nM to 10 μM final). An aliquot of 45 μL of cells was added to a well of a 96-well microtiter plate containing 5 μL of a 10% DMSO in RPMI-1640 media solution without compound as the control sample for maximal cell proliferation (Lmax). The samples were mixed by agitation and then incubated at 37° C. for 48 h in a 5% CO2-95% humidity incubator. After incubation, the samples were removed from the incubator and 25 μL of CellTiter-Glo™ reagent (Promega) was added. The samples were mixed by agitation and incubated at room temperature for 10-15 min. Plates were then read using a luminescent plate reader (Model SPECTRAfluor Plus, Tecan) to give Ltest values.
(§3) Baseline for GI50 (dose for 50% inhibition of cell proliferation) of initial cell numbers was determined by adding an aliquot of 45 μL of cells or 45 μL of media, respectively, to wells of a 96-well microtiter plate containing 5 μL of a 10% DMSO in RPMI-1640 media solution. The samples were mixed by agitation and then incubated at 37° C. for 0.5 h in a 5% CO2-95% humidity incubator. After incubation, the samples were removed from the incubator and 25 μL of CellTiter-Glo™ reagent (Promega) was added. The samples were mixed by agitation and incubated at 37° C. for 10-15 min at room temperature in a 5% CO2-95% humidity incubator. Fluorescence was read as above, (LStart) defining luminescence for initial cell number used as baseline in GI50 determinations.
(§4) GI50 (dose for 50% inhibition of cell proliferation) is the concentration where [(LTest−Lstart)/(LMax−Lstart)]=0.5.

For assay [9], the system named is human breast cancer cell line MX-1. Nature of the assay: Inhibition of cell proliferation (GI50) in MX-1 cells. Particulars: Table III, MX1 cells, 48 h, read-out: GI50 in Cancer Cells MX1. How it is done: as §2, §3, §4
In assay [10] the test system is human breast cancer cell line T-47D. Nature of the assay: Inhibition of cell proliferation (GI50, CellTiter-Glo) in T-47D cells. The note with it: Table III, T47D cells, 48 h, read-out: GI50 in Cancer Cells T47D. As for the experimental part: as §2, §3, §4
Background: ATP-based viability assays read luminescence as a measure of living cells.

Assay [11] concerns human lung cancer cell line H1299. Nature of the assay: Inhibition of cell proliferation (GI50) in H1299 cells. The note with it: NCI-H1299, Table III, 48 h. How it is done: as §2, §3, §4
The test system is the same in assay [12]. Nature of the assay: Caspase cascade activation in H1299 cells. The note with it: NCI-H1299, 24 h, read-out: Caspase activation Potency EC50 H1299 (24 h). The essentials: as §1
In assay [13] the test system is human breast cancer cell line MDAMB435. Nature of the assay: Inhibition of cell proliferation (GI50) in MDAMB435 cells. Particulars: MDA-MB-435, Table III, 48 h, read-out: GI50 in Cancer Cells MDAMB435. How it is done: as §2, §3, §4

For orientation: EC50 means the concentration giving half of the maximal effect. For `COc1cc(Nc2ncnc3ccsc23)cc(N(C)C)c1` [Example 70, N-(3-Dimethylamino-5-methoxyphenyl)thieno[3,2-d]pyrimidin-4-amine hydrochloride], the concentration for a half-maximal effect (EC50) amounted to 173 nM in [1]; 238 nM in assay [2] (48 h, hydrochloride); 241 nM in [3] (T-47D cells, 48 h, hydrochloride, read-out: Caspase activation Potency EC50 T-47D (48 h)); 433 nM in assay [4] (48 h, hydrochloride); 153 nM in assay [5]; 399 nM in [6]. For the same compound, the 50% effective concentration (EC50) in [7] turned out to be 204 nM.

The term GI50 denotes the concentration giving 50% growth inhibition. As to `COc1ccc(OC)c(Nc2ncnc3scc(C)c23)c1` [Example 6, N-(2,5-Dimethoxyphenyl)-5-methylthieno[2,3-d]pyrimidin-4-amine hydrochloride], the GI50 in [8], in assay [9], in assay [10], in assay [11] and in [13] was above 10000 nM in each case. Further, the EC50 in assay [2] (Homo sapiens, SNU-398, 48 h) is above 10000 nM; in [3] (Homo sapiens, T47D, 24 h, T47D cells, 24 h, read-out: Caspase activation Potency EC50 T47D (24 h)), above 10000 nM; in [3] (Homo sapiens, T47D, 48 h, T-47D cells, 48 h, read-out: Caspase activation Potency EC50 T-47D (48 h)) it was above 10000 nM; in assay [4] (Homo sapiens, HCT-116, 48 h), above 10000 nM; in assay [12] it was above 10000 nM.
